Consider 92 molecules from ChEMBL document CHEMBL5604062, “ASAP - ZIKV NS2B-NS3 protease fluorescence dose response” (2024).

pIC50: −log10 of the molar value. “And” between values parts separate entries of the source, which are not always exact repeats. Equal entries are not always repeated. Where only a bound is given, the exact number is not on record here.

Chain of Nonstructural protein 3 (A0A024AXB9 whole entry): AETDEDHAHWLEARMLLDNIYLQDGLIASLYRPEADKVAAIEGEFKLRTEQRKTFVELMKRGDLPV

This assay concerns the target Nonstructural protein 3 (Zika virus, UniProt A0A024AXB9). The assay is described as follows: Functional biochemical assay to identify treatments for viral infectious disease that targets Zika NS2B-NS3 protease. Utilizing a direct enzyme activity measurement method, reading the fluorescence intensity is used to characterize the relative potency of inhibitors as IC50. Also noted: species or system PRVABC59.
`CCn1c(=O)c(N2CC[C@H](CO)C2)nc2ccc(C(N)=O)cc21` gave a negative-log IC50 (pIC50) below 4.00. `O=C(Nc1cc(Cl)cc(C(=O)NCCc2nnn[nH]2)c1)OCc1ccccc1` had a pIC50 below 4.00. The value for `Cc1c(C(=O)Nc2cccc(-n3nn[nH]c3=O)c2)cc(C2CC2)n1C` was below 4.00. The molecule `N[C@H]1Cc2ccc(NC(=O)c3cc(Cl)cc(NC(=O)OCc4ccccc4)c3)cc2C1` gave a pIC50 of 5.60.

Molecule `N#Cc1ccc(CN)cc1NC(=O)c1cc(Cl)cc(NC(=O)OCc2ccccc2)c1` showed a pIC50 of 4.73. In the case of `O=C(Nc1cc(Cl)cc(C(=O)Nc2ccc3c(c2)C[C@H](F)C3)c1)OCc1ccccc1`, the pIC50 is below 4.00. In the case of `Cc1nc(-c2ccc(Cl)cc2)sc1C(=O)Nc1cccc(CN)c1`, the pIC50 was 4.04.

With `CC[C@H](Cc1nnn[nH]1)c1ccc(NC(=O)c2cc(Cl)cc(SC)c2)cc1`, the pIC50 was below 4.00. For `Cc1c(C(=O)Nc2cccc(CN)c2)cc(C2CC2)n1C`, the pIC50 is below 4.00.

In turn, `O=C(Nc1cccc(-c2nnn[nH]2)c1)c1cc(Cl)cc2[nH]ncc12` gave a negative logarithm of the IC50 (pIC50) below 4.00. On to `CCn1c(=O)c(N2CC[C@H](CO)C2)nc2ccc(C(=O)NS(C)(=O)=O)cc21`, for which the pIC50 is below 4.00. Consider `Cc1c(C(=O)Nc2cccc([C@H]3CCNC3)c2)cc(C2CC2)n1C`, for which the pIC50 was below 4.00.

Regarding `Cc1c(C(=O)Nc2cccc(CN)c2)cc(C(C)C)n1C`, the pIC50 is below 4.00. The molecule `N#Cc1cc(Cl)cc(S(=O)(=O)Nc2cccc(-c3nnn[nH]3)c2)c1` showed a pIC50 below 4.00. The value for `Cc1c(C(=O)Nc2cccc(CCN)c2)cc(C2CC2)n1C` was 4.05. Regarding `CC(C)[C@@H]1C(=O)O[C@H]1C(=O)O`, the pIC50 is below 4.00.

`O=C(Nc1cc(Cl)cc(C(=O)Nc2cccc(-c3cn[nH]n3)c2)c1)OCc1ccccc1` had a pIC50 below 4.00. The value for `CCc1cc(C(=O)Nc2cccc(CN)c2)sc1C` was below 4.00; that for `Cc1ccc(NC(=O)c2cc(C3CC3)n(C)c2C)cc1CN` was below 4.00; that for `Cc1onc(C(=O)Nc2cccc(CN)c2)c1COc1cccc(F)c1` was below 4.00. Regarding `CC[C@H](Cc1nnn[nH]1)c1ccc(NC(=O)c2cc(Cl)cc3[nH]ncc23)cc1`, the pIC50 is below 4.00. Consider `Cc1nn(CCO)c(C(F)F)c1C(=O)Nc1cccc(CN)c1`, for which the pIC50 was below 4.00. The value for `CCc1nc(C(=O)Nc2cccc(CN)c2)nn1-c1c(Cl)cccc1Cl` was below 4.00; that for `CC(C)c1nc2c(C(=O)Nc3cccc(-c4nnn[nH]4)c3)cccc2[nH]1` was below 4.00. Regarding `N#Cc1cc(Cl)cc(C(=O)Nc2cccc(-n3nn[nH]c3=O)c2)c1`, the pIC50 was below 4.00. Consider `Cn1nnnc1-c1cccc(NC(=O)c2cc(Cl)cc(NC(=O)OCc3ccccc3)c2)c1`, for which the pIC50 was below 4.00. The value for `O=C1Cc2cc(NC(=O)c3cc(Cl)cc(NC(=O)OCc4ccccc4)c3)ccc2N1` was below 4.00; that for `Nc1nc2ccc(NC(=O)c3cc(Cl)cc(NC(=O)OCc4ccccc4)c3)cc2[nH]1` was below 4.00; that for `CSc1cc(Cl)cc(C(=O)Nc2cccc(-n3nn[nH]c3=O)c2)c1` was below 4.00. `NCCCCc1ccc(NC(=O)c2cc(Cl)cc(NC(=O)OCc3ccccc3)c2)cc1` showed a pIC50 of 5.27. In turn, `CCNC(=O)Nc1cc(Cl)cc(C(=O)Nc2ccc([C@H](CC)Cc3nnn[nH]3)cc2)c1` had a pIC50 below 4.00. As for `CC(C)c1occ(C(F)(F)F)c1C(=O)Nc1cccc(CN)c1`, the pIC50 is below 4.00. The value for `CNC(=O)[C@H](Nc1cccc(N)n1)c1cc(Cl)cc(CNC(=O)OC(C)(C)C)c1` was below 4.00; that for `O=C(Nc1cc(Cl)cc(C(=O)Nc2cc(Br)cc(-c3nnn[nH]3)c2)c1)OCc1ccccc1` was 5.14; that for `Nc1cccc(NC(=O)c2cc(Cl)cc(NC(=O)OCc3ccccc3)c2)n1` was below 4.00. On to `COC(=O)c1cc(NC(=O)c2cc(Cl)cc(NC(=O)OCc3ccccc3)c2)cc(-c2nnn[nH]2)c1`, for which the negative logarithm of the IC50 (pIC50) is 5.02.

`N#Cc1cc(CN)cc(NC(=O)c2cc(Cl)cc(NC(=O)OCc3ccccc3)c2)c1`: the pIC50 was 4.97. For `NCc1nc(-c2ccc(NC(=O)c3cc(Cl)cc(NC(=O)OCc4ccccc4)c3)cc2)n[nH]1`, the pIC50 is below 4.00.

As for `O=C(Nc1cc(Cl)cc(C(=O)NCCCc2nnn[nH]2)c1)OCc1ccccc1`, the pIC50 was below 4.00. In turn, `C=CC[C@H](Nc1cccc(CN)n1)c1cc(Cl)cc(NC(=O)OCc2ccccc2)c1` showed a pIC50 of 4.60. The value for `O=C(Nc1cc(Cl)cc(C(=O)Nc2ccc(-n3nn[nH]c3=O)cc2)c1)OCc1ccccc1` was 4.51; that for `CC(C)[C@H](NC(=O)c1cc(Cl)cc(NC(=O)OCc2ccccc2)c1)c1nn[nH]n1` was below 4.00. In turn, `CC[C@H](Cc1nnn[nH]1)c1ccc(NC(=O)c2cc(Cl)cc(C#N)c2)cc1` showed a pIC50 below 4.00. `Cc1cc(CN)cc(NC(=O)c2cc(C3CC3)n(C)c2C)c1` gave a pIC50 below 4.00.

On to `O=C(Nc1cc(Cl)cc(C(=O)Nc2ccc([C@H]3CNCCO3)cc2)c1)OCc1ccccc1`, for which the pIC50 is below 4.00. With `Cn1nc(C(=O)Nc2cccc(CN)c2)cc1C1CC1`, the pIC50 was below 4.00.

Turning to `Cc1c(C(=O)Nc2cccc([C@@H](C)N)c2)cc(C2CC2)n1C`, the pIC50 was below 4.00. Turning to `NC[C@H]1C[C@H]1NC(=O)c1cc(Cl)cc(NC(=O)OCc2ccccc2)c1`, the pIC50 was below 4.00.

`CCc1onc(C2CCOCC2)c1C(=O)Nc1cccc(CN)c1` gave a pIC50 below 4.00.

`Cn1cc(C(=O)Nc2cccc(CN)c2)c(-c2cnccn2)n1` had a pIC50 below 4.00. The molecule `N#Cc1cc(Cl)cc(C(=O)Nc2cccc(-c3nnn[nH]3)c2)c1` had a pIC50 below 4.00. Consider `N[C@H]1CCN(c2ccc(NC(=O)c3cc(Cl)cc(NC(=O)OCc4ccccc4)c3)cc2)C1`, for which the pIC50 is 5.11.

In turn, `CNC(=O)[C@H](Nc1cccc(CN)c1)c1cc(Cl)cc(NC(=O)OCc2ccccc2)c1` had a pIC50 of 6.21. Molecule `O=C(Nc1cccc(-n2nn[nH]c2=O)c1)c1cc(Cl)cc2c1CCC2` gave a pIC50 below 4.00. The value for `O=C(Nc1cc(Cl)cc(C(=O)Nc2ccc([C@H]3CCCNC3)cc2)c1)OCc1ccccc1` was 5.12; that for `NC[C@H]1C[C@@H]1NC(=O)c1cc(Cl)cc(NC(=O)OCc2ccccc2)c1` was 4.67. As to `NC1CCN(c2ccc(NC(=O)c3cc(Cl)cc(NC(=O)OCc4ccccc4)c3)cc2)CC1`, the pIC50 is 5.14. The value for `O=C(Nc1cccc(-c2nnn[nH]2)c1)c1cc(Cl)cc(C2CC2)c1` was below 4.00; that for `CCNC(=O)Nc1cc(Cl)cc(C(=O)Nc2cccc(-c3nn[nH]n3)c2)c1` was below 4.00; that for `Cc1c(C(=O)Nc2cc(CCCN)ccn2)cc(C2CC2)n1C` was 4.40.

As for `NCc1cccc(NC(=O)[C@H]2CCCN(C(=O)CC3CC3)C2)c1`, the pIC50 was below 4.00. Turning to `NCc1cccc(NC(=O)c2nc(C3CC3)n(-c3ccccc3Cl)n2)c1`, the pIC50 was below 4.00. In turn, `O=C(Nc1cc(Cl)cc(C(=O)Nc2ccc([C@H]3CCNC3)cc2)c1)OCc1ccccc1` had a pIC50 of 5.26. The molecule `O=C(Nc1cc(Cl)cc(C(=O)N[C@]2(c3nnn[nH]3)CCOC2)c1)OCc1ccccc1` showed a pIC50 below 4.00. Regarding `O=C(Nc1cc(Cl)cc(C(=O)Nc2ccc(CC3CCNCC3)cc2)c1)OCc1ccccc1`, the pIC50 was 5.28. `Cc1cc(C(=O)Nc2cccc(CN)c2)c(NC(=O)[C@H]2CCCO2)s1` had a pIC50 of 5.23. `NCc1cccc(NC(=O)c2cc(Br)cc(-n3cnnn3)c2)c1` had a pIC50 of 5.15. The value for `NCc1cc(Cl)cc(C(=O)Nc2cccc(-c3nn[nH]n3)c2)c1` was below 4.00; that for `O=C(Nc1cc(Cl)cc(C(=O)N[C@H](c2nn[nH]n2)C2CNC2)c1)OCc1ccccc1` was below 4.00; that for `COc1cc(C(=O)Nc2cccc(CN)c2)cc2cn(C)nc12` was below 4.00. The molecule `O=C(Nc1cc(Cl)cc(C(=O)Nc2ccc3c(c2)CCNC3)c1)OCc1ccccc1` showed a pIC50 of 5.83. Turning to `Cc1oc(C(=O)Nc2cccc(CN)c2)cc1COc1ccccc1`, the pIC50 was below 4.00. `CN(C)[C@H](C(=O)Nc1cccc(CN)c1)c1cc(Cl)cc(Cl)c1` gave a pIC50 below 4.00. For `Cn1nc(C(=O)Nc2cccc(CN)c2)c2c1CCS(=O)(=O)C2`, the pIC50 was below 4.00. The value for `O=S(=O)(Nc1cccc(-c2nnn[nH]2)c1)c1cc(F)cc(Cl)c1` was below 4.00; that for `O=C(Nc1cccc(-n2nn[nH]c2=O)c1)c1cc(Cl)cc(N2CCCC2=O)c1` was below 4.00. Regarding `CCOC(=O)c1[nH]c(C)c(C(=O)Nc2cccc(CN)c2)c1CC`, the pIC50 was below 4.00.

As for `CC[C@H](Cc1nnn[nH]1)c1ccc(NC(=O)c2cc(Cl)cc3c2CCC3)cc1`, the pIC50 was below 4.00.

As for `Cc1c(C(=O)Nc2ccc3c(c2)CNCCO3)cc(C2CC2)n1C`, the negative-log IC50 (pIC50) was below 4.00.

The molecule `CC[C@H](Cc1nnn[nH]1)c1ccc(NC(=O)c2cc(Cl)cc(C3CC3)c2)cc1` gave a pIC50 below 4.00.

For `CCc1cc(C(=O)Nc2cccc(-c3nnn[nH]3)c2)sc1-c1ccc(Cl)cc1`, the pIC50 was 4.93 and 4.78. Regarding `Cc1c(C(=O)Nc2cccc(C3CCNCC3)c2)cc(C2CC2)n1C`, the pIC50 was below 4.00. Molecule `O=C(N[C@H]1[C@H]2CCCCC[C@H]2[C@H]1C(=O)Nc1cccc(-n2nn[nH]c2=O)c1)OCc1ccccc1` showed a pIC50 of 4.20. In turn, `CC(C)[C@H]1C(=O)O[C@@H]1C(=O)O` gave a pIC50 below 4.00.

In the case of `O=C(Nc1cc(Cl)cc(C(=O)Nc2ccc3c(c2)CNC3=O)c1)OCc1ccccc1`, the pIC50 was below 4.00. The molecule `NCc1ccc2c(c1)[C@H](N1CCCC1=O)C[C@H](c1cc(Cl)cc(NC(=O)OCc3ccccc3)c1)N2` gave a pIC50 of 4.57. Molecule `Cc1c(C(=O)Nc2n[nH]c3c2CNC3)cc(C2CC2)n1C` had a pIC50 below 4.00. The value for `Cc1c(C(=O)Nc2ccc(CCN)cc2)cc(C2CC2)n1C` was 4.03; that for `CC[C@H](Cc1nnn[nH]1)c1ccc(NC(=O)c2cc(Cl)cc(Cl)c2OC)cc1` was below 4.00; that for `O=C(O)Cc1cccc(NC(=O)c2cc(Cl)cc(NC(=O)OCc3ccccc3)c2)c1` was below 4.00.

On to `CCNC(=O)Nc1cc(Cl)cc(C(=O)O)c1`, for which the pIC50 was below 4.00. In turn, `NCc1cccc(NC(=O)c2cc(C(F)(F)F)cnc2N2CCOCC2)c1` had a pIC50 below 4.00.

The term pIC50 denotes the IC50 on a negative log10 scale, so that one unit is a factor of ten. A higher pIC50 goes with a small IC50.
